US20230111310A1, “CARBOXYLIC ACID DERIVATIVE-SUBSTITUTED IMINO ARYL COMPOUND, PREPARATION METHOD THEREFOR, HERBICIDAL COMPOSITION AND USE THEREOF” (Qingdao Kingagroot Chemical Compound Co., Ltd., priority 2020, published 2023)

Columns and labels:
Assay in all cases: Weeding effect in post-emergence stage
Format in all cases: in vivo
[1] = tested on: Alopecurus japonicus; settings: for Weeding effect in post-emergence stage, Alopecurus japonicus (level): fresh weight control rate level; for Weeding effect in post-emergence stage, Alopecurus japonicus: level of fresh weight growth control rate
In short: (§1)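 Pot-grown weeds were sprayed at the 2-3 leaf stage, 2 weeks after sowing, with compound in acetone plus Tween 80 and 1.5 liter/ha methyl oleate emulsifiable concentrate, diluted in water. Doses were 500, 250, 125, 60, 30, 15, 7.5 g/ha. Growth control was scored after 3 weeks in greenhouse; mean of three replicates.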

[2] = tested on: Abutilon theophrasti; settings: for Weeding effect in post-emergence stage, Abutilon theophrasti (level): fresh weight control rate level; for Weeding effect in post-emergence stage, Abutilon theophrasti: level of fresh weight growth control rate
In short: as §1

[3] = tested on: Eleusine indica; settings: for Weeding effect in post-emergence stage, Eleusine indica (level): fresh weight control rate level; for Weeding effect in post-emergence stage, Eleusine indica: level of fresh weight growth control rate
In short: as §1

[4] = tested on: Digitaria sanguinalis; settings: for Weeding effect in post-emergence stage, Digitaria sanguinalis (level): fresh weight control rate level; for Weeding effect in post-emergence stage, Digitaria sanguinalis: level of fresh weight growth control rate
In short: as §1

[5] = tested on: Setaria viridis; settings: for Weeding effect in post-emergence stage, Setaria viridis (level): fresh weight control rate level; for Weeding effect in post-emergence stage, Setaria viridis: level of fresh weight growth control rate
In short: as §1

[6] = tested on: Echinochloa crusgalli; settings: for Weeding effect in post-emergence stage, Echinochloa crusgalli (level): fresh weight control rate level; for Weeding effect in post-emergence stage, Echinochloa crusgalli: level of fresh weight growth control rate
In short: as §1

Structure (SMILES)	Weeding effect in post-emergence stage, Alopecurus japonicus (level) ([1]; Dose 15 g/ha)	Weeding effect in post-emergence stage, Abutilon theophrasti (level) ([2]; Dose 15 g/ha)	Weeding effect in post-emergence stage, Eleusine indica (level) ([3]; Dose 15 g/ha)	Weeding effect in post-emergence stage, Digitaria sanguinalis (level) ([4]; Dose 15 g/ha)	Weeding effect in post-emergence stage, Setaria viridis (level) ([5]; Dose 15 g/ha)	Weeding effect in post-emergence stage, Echinochloa crusgalli (level) ([6]; Dose 15 g/ha)	Weeding effect in post-emergence stage, Alopecurus japonicus ([1]; Dose 15 g/ha)	Weeding effect in post-emergence stage, Abutilon theophrasti ([2]; Dose 15 g/ha)	Weeding effect in post-emergence stage, Eleusine indica ([3]; Dose 15 g/ha)	Weeding effect in post-emergence stage, Digitaria sanguinalis ([4]; Dose 15 g/ha)	Weeding effect in post-emergence stage, Setaria viridis ([5]; Dose 15 g/ha)	Weeding effect in post-emergence stage, Echinochloa crusgalli ([6]; Dose 15 g/ha)	further results
COC(=O)C(OC)(OC)O/N=C/c1cc(-n2c(=O)cc(C(F)(F)F)n(C)c2=O)c(F)cc1Cl [Compound 494]	5 (Level 5: growth control rate is above 85%)	5 (Level 5: growth control rate is above 85%)	5 (Level 5: growth control rate is above 85%)	5 (Level 5: growth control rate is above 85%)	5 (Level 5: growth control rate is above 85%)	5 (Level 5: growth control rate is above 85%)							
C#CCCOC(=O)C(C)O/N=C/c1cc(-n2c(=O)cc(C(F)(F)F)n(C)c2=O)c(F)cc1Cl (stereo not drawn) [Compound 442]	5 (Level 5: growth control rate is above 85%)	5 (Level 5: growth control rate is above 85%)	5 (Level 5: growth control rate is above 85%)	5 (Level 5: growth control rate is above 85%)	5 (Level 5: growth control rate is above 85%)	5 (Level 5: growth control rate is above 85%)							
CC(C)OC(=O)[C@@H](C)O/N=C/c1cc(-n2c(=O)n(C)c(=S)n(C)c2=O)c(F)cc1Cl [5(R)]							5 (Level 5: growth control rate is above 85%)	5 (Level 5: growth control rate is above 85%)	5 (Level 5: growth control rate is above 85%)	5 (Level 5: growth control rate is above 85%)	5 (Level 5: growth control rate is above 85%)	5 (Level 5: growth control rate is above 85%)	
CON(C)C(=O)[C@@H](C)O/N=C/c1cc(-n2c(=O)cc(C(F)(F)F)n(C)c2=O)c(F)cc1Cl [419(R)]	5 (Level 5: growth control rate is above 85%)	5 (Level 5: growth control rate is above 85%)	5 (Level 5: growth control rate is above 85%)	5 (Level 5: growth control rate is above 85%)	5 (Level 5: growth control rate is above 85%)	5 (Level 5: growth control rate is above 85%)							
CC(C)SC(=O)[C@@H](C)O/N=C/c1cc(-n2c(=O)cc(C(F)(F)F)n(C)c2=O)c(F)cc1Cl [400(R)]	5 (Level 5: growth control rate is above 85%)	5 (Level 5: growth control rate is above 85%)	5 (Level 5: growth control rate is above 85%)	5 (Level 5: growth control rate is above 85%)	5 (Level 5: growth control rate is above 85%)	5 (Level 5: growth control rate is above 85%)							
CC(C)=NOC(=O)[C@@H](C)O/N=C/c1cc(-n2c(=O)n(C)c(=S)n(C)c2=O)c(F)cc1Cl [20(R)]							5 (Level 5: growth control rate is above 85%)	5 (Level 5: growth control rate is above 85%)	5 (Level 5: growth control rate is above 85%)	5 (Level 5: growth control rate is above 85%)	5 (Level 5: growth control rate is above 85%)	5 (Level 5: growth control rate is above 85%)	
COC(=O)[C@@H](C)O/N=C/c1cc(-n2c(=O)c(C)c(C(F)(F)F)n(C)c2=O)c(F)cc1Cl [473(R)]													Weeding effect in post-emergence stage, Alopecurus japonicus (level) ([1]; Dose 30 g/ha): 5 (Level 5: growth control rate is above 85%); Weeding effect in post-emergence stage, Abutilon theophrasti (level) ([2]; Dose 30 g/ha): 5 (Level 5: growth control rate is above 85%); Weeding effect in post-emergence stage, Eleusine indica (level) ([3]; Dose 30 g/ha): 5 (Level 5: growth control rate is above 85%); Weeding effect in post-emergence stage, Digitaria sanguinalis (level) ([4]; Dose 30 g/ha): 5 (Level 5: growth control rate is above 85%); Weeding effect in post-emergence stage, Setaria viridis (level) ([5]; Dose 30 g/ha): 5 (Level 5: growth control rate is above 85%); Weeding effect in post-emergence stage, Echinochloa crusgalli (level) ([6]; Dose 30 g/ha): 5 (Level 5: growth control rate is above 85%)
CC(C)OC(=O)C(C)O/N=C/c1cc(-n2c(=O)n(C)c(=S)n(C)c2=O)c(F)cc1Cl (racemic) [Compound 5]							5 (Level 5: growth control rate is above 85%)	5 (Level 5: growth control rate is above 85%)	5 (Level 5: growth control rate is above 85%)	5 (Level 5: growth control rate is above 85%)	5 (Level 5: growth control rate is above 85%)	5 (Level 5: growth control rate is above 85%)	
C=C(Cl)COC(=O)C(C)O/N=C/c1cc(-n2c(=O)cc(C(F)(F)F)n(C)c2=O)c(F)cc1Cl (stereo not drawn) [Compound 501]	5 (Level 5: growth control rate is above 85%)	5 (Level 5: growth control rate is above 85%)	5 (Level 5: growth control rate is above 85%)	5 (Level 5: growth control rate is above 85%)	5 (Level 5: growth control rate is above 85%)	5 (Level 5: growth control rate is above 85%)							
COC(=O)[C@@H](C)O/N=C/c1cc(-n2c(=O)cc(C(F)(F)F)n(C)c2=O)c(F)cc1C#N [344(R)]							5 (Level 5: growth control rate is above 85%)	5 (Level 5: growth control rate is above 85%)	5 (Level 5: growth control rate is above 85%)	5 (Level 5: growth control rate is above 85%)	5 (Level 5: growth control rate is above 85%)	5 (Level 5: growth control rate is above 85%)	
CC(O/N=C/c1cc(-n2c(=O)cc(C(F)(F)F)n(C)c2=O)c(F)cc1Cl)C(=O)OCCCC#N (stereo not drawn) [Compound 446]	5 (Level 5: growth control rate is above 85%)	5 (Level 5: growth control rate is above 85%)	5 (Level 5: growth control rate is above 85%)	5 (Level 5: growth control rate is above 85%)	5 (Level 5: growth control rate is above 85%)	5 (Level 5: growth control rate is above 85%)							
